Here are results for two compounds from patent publication US8980951B2, “Sesquiterpenes for antifungal applications” (Kansas State University Research Foundation, priority 2011, dated 2015).

For the test, the system named is A. nidulans, C. albicans, C. albicans 95-158 Flu-R, Cryp. neomormans, Candida krusei, and C. glabrata. The test can be described thus: Fungicidal test, viability of treated fungal cells spotted on YPD agar. The class given is cell-based. The settings on record: after 72 h exposure.

With `C=C1CC[C@H]2C(C)(C)CCC[C@]2(C)[C@H]1CO` [Albicanol, (+)-albicanol], the “resistance in treated fungi” value was “not observed”.
The entry for `CC1=CC[C@H]2C(C)(C)CCC[C@]2(C)[C@H]1CO` [drimenol, (−)-drimenol] is “not observed”.
